Measured values from ChEMBL document CHEMBL1921770, “Synthesis and structure-activity relationship (SAR) of (5,7-disubstituted 3-phenylsulfonyl-pyrazolo[1,5-a]pyrimidin-2-yl)-methylamines as potent serotonin 5-HT(6) receptor (5-HT(6)R) antagonists” (J Med Chem, 2011).
One block for each molecule: values may come before it. The source made the active and inactive calls. The calls are words filed in the database; no cut-off is given here.

Key:
[1] = target: T1, 5-hydroxytryptamine receptor 6 (Homo sapiens, UniProt P50406); assay: Inhibition of human recombinant 5-HT6 receptor expressed in human HEK293 cells assessed as inhibition of serotonin-induced cAMP accumulation; assay type: functional, cell-based
T1 sequence (P50406 whole entry): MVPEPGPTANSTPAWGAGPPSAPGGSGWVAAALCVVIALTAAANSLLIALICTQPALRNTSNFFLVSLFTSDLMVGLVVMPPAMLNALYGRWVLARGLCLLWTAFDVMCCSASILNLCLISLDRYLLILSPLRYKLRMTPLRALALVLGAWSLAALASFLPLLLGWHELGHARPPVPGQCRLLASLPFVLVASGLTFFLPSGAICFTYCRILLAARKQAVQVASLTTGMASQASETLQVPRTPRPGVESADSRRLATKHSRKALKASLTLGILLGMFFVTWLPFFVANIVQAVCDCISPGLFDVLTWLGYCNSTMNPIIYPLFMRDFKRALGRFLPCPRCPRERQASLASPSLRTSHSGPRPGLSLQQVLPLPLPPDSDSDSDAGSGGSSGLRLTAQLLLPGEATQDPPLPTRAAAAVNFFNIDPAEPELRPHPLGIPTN

[2] = target: Adenosine receptor A1 (Homo sapiens) (UniProt P30542); assay: Inhibition of adenosine A1 receptor at 1 uM by ligand displacement assay
[3] = Inhibition of adrenergic beta receptor at 1 uM by ligand displacement assay
[4] = target: Adenosine receptor A2b (Homo sapiens) (UniProt P29275); assay: Inhibition of adenosine A2B receptor at 1 uM by ligand displacement assay
Chain of Adenosine receptor A2b (Homo sapiens) (P29275 whole entry): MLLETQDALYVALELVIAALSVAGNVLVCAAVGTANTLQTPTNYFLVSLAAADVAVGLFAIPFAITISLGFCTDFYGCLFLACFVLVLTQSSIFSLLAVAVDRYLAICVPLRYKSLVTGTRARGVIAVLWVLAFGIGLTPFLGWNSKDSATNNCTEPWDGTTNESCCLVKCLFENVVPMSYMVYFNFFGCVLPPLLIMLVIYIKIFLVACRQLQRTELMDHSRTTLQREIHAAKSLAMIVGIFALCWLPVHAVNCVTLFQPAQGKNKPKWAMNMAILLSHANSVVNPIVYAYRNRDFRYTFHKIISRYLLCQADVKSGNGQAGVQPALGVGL

[5] = Inhibition of dopamine D4.7 receptor at 1 uM by ligand displacement assay
[6] = target: 5-hydroxytryptamine receptor 4 (Homo sapiens) (UniProt Q13639); assay: Inhibition of serotonin 5-HT4 receptor at 1 uM by ligand displacement assay
Chain of 5-hydroxytryptamine receptor 4 (Homo sapiens) (Q13639 whole entry): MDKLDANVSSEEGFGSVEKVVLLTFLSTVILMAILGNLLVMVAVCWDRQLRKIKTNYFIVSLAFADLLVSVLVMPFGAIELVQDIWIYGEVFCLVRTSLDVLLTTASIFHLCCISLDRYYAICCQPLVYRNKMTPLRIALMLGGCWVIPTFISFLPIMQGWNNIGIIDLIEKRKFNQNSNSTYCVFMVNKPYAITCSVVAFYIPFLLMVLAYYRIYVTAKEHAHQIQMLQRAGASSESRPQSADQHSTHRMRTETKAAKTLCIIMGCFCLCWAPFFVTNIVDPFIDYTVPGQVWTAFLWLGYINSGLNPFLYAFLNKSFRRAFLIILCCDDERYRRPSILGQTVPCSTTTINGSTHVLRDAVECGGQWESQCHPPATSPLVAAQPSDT

[7] = target: Histamine H2 receptor (Homo sapiens) (UniProt P25021); assay: Inhibition of histamine H2 receptor at 1 uM by ligand displacement assay
Chain of Histamine H2 receptor (Homo sapiens) (P25021 whole entry): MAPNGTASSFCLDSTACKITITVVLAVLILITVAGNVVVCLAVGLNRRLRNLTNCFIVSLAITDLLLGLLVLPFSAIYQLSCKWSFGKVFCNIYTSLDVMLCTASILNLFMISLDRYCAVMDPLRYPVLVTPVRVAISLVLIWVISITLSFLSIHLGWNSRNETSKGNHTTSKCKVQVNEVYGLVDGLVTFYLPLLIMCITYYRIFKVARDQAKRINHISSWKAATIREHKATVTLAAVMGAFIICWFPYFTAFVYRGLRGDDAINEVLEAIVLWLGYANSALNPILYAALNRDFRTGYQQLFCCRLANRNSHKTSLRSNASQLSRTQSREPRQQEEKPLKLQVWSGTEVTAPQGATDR

[8] = target: Histamine H3 receptor (Homo sapiens) (UniProt Q9Y5N1); assay: Inhibition of histamine H3 receptor at 1 uM by ligand displacement assay
[9] = target: D(3) dopamine receptor (Homo sapiens) (UniProt P35462); assay: Inhibition of dopamine D3 receptor at 1 uM by ligand displacement assay
[10] = target: Muscarinic acetylcholine receptor M3 (Homo sapiens) (UniProt P20309); assay: Inhibition of muscarinic M3 receptor at 1 uM by ligand displacement assay
Chain of Muscarinic acetylcholine receptor M3 (Homo sapiens) (P20309 whole entry, looked up): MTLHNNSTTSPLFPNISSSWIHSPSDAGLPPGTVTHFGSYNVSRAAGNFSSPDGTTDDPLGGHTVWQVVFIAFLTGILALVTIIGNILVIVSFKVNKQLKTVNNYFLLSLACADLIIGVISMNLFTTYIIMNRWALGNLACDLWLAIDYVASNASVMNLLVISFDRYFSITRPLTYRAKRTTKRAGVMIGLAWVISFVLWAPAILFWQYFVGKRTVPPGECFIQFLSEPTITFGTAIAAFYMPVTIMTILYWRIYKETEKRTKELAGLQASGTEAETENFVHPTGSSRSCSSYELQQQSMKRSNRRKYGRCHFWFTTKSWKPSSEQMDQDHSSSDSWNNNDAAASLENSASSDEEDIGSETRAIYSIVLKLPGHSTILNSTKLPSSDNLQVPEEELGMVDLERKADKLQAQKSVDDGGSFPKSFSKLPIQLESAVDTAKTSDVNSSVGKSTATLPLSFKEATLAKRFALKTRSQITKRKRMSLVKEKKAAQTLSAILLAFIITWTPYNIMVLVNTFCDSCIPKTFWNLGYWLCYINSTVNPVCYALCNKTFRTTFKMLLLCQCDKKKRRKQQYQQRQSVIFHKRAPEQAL

[11] = target: 5-hydroxytryptamine receptor 5A (Homo sapiens) (UniProt P47898); assay: Inhibition of serotonin 5-HT5A receptor at 1 uM by ligand displacement assay
[12] = target: Alpha-2A adrenergic receptor (Homo sapiens) (UniProt P08913); assay: Inhibition of adrenergic alpha2 receptor at 1 uM by ligand displacement assay
Chain of Alpha-2A adrenergic receptor (Homo sapiens) (P08913 whole entry): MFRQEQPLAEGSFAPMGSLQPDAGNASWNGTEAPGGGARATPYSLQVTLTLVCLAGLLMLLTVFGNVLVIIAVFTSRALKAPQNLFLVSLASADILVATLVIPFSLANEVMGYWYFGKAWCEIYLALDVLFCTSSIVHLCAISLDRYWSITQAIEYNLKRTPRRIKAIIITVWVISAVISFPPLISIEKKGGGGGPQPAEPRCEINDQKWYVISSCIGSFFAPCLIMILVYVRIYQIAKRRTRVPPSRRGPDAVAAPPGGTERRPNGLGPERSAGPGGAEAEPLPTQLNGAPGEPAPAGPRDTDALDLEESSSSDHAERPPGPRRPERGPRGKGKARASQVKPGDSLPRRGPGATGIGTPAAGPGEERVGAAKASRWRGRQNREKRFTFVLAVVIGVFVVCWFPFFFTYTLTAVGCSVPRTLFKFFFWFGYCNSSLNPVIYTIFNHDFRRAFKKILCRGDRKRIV

[13] = target: D(4) dopamine receptor (Homo sapiens) (UniProt P21917); assay: Inhibition of dopamine D4.4 receptor at 1 uM by ligand displacement assay
Chain of D(4) dopamine receptor (Homo sapiens) (P21917 whole entry): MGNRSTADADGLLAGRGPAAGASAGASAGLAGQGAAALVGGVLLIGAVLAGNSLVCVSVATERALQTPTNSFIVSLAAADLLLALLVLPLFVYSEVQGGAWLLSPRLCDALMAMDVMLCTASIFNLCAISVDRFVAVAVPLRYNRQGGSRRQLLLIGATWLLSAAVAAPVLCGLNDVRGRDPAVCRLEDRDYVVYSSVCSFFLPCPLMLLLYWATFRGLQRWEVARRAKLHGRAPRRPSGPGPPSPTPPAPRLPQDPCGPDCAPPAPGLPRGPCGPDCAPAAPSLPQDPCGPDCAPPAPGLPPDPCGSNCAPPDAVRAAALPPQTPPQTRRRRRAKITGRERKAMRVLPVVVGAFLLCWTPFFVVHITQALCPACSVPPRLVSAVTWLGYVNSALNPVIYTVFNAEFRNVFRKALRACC

[14] = target: 5-hydroxytryptamine receptor 1A (Homo sapiens) (UniProt P08908); assay: Inhibition of serotonin 5-HT1A receptor at 1 uM by ligand displacement assay
[15] = target: D(1B) dopamine receptor (Homo sapiens) (UniProt P21918); assay: Inhibition of dopamine D5 receptor at 1 uM by ligand displacement assay
[16] = Inhibition of dopamine D4.2 receptor at 1 uM by ligand displacement assay
[17] = target: 5-hydroxytryptamine receptor 2B (Homo sapiens) (UniProt P41595); assay: Displacement of[3H]lysergic acid […] 5-HT2B receptor at 1 uM by ligand displacement assay
Chain of 5-hydroxytryptamine receptor 2B (Homo sapiens) (P41595 whole entry): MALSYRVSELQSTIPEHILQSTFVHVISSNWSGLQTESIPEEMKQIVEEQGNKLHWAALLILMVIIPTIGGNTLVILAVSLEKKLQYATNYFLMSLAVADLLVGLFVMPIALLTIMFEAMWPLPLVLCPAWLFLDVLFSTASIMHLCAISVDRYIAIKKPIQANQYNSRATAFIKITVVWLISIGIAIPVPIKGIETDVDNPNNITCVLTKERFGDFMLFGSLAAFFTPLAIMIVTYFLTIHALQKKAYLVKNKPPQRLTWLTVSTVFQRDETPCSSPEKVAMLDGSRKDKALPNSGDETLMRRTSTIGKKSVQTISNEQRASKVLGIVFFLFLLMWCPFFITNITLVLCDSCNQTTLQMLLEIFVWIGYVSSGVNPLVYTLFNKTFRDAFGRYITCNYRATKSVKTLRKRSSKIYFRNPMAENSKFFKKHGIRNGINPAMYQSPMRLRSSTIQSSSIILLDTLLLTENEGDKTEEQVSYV

[18] = target: D(2) dopamine receptor (Homo sapiens) (UniProt P14416); assay: Inhibition of dopamine D2S receptor at 1 uM by ligand displacement assay
[19] = Inhibition of adrenergic alpha1 receptor at 1 uM by ligand displacement assay
[20] = target: T1, 5-hydroxytryptamine receptor 6; assay: Displacement of[3H]lysergic acid […] from 5-HT6 receptor at 1 uM by ligand displacement assay
[21] = target: T1, 5-hydroxytryptamine receptor 6; assay: Antagonist activity at human recombinant 5-HT6 receptor expressed in human HEK293 cells assessed as inhibition of serotonin-induced cAMP accumulation; assay type: functional, cell-based; conditions: read-out: pA2 (converted)
[22] = target: Muscarinic acetylcholine receptor M4 (Homo sapiens) (UniProt P08173); assay: Inhibition of muscarinic M4 receptor at 1 uM by ligand displacement assay
Chain of Muscarinic acetylcholine receptor M4 (Homo sapiens) (P08173 whole entry): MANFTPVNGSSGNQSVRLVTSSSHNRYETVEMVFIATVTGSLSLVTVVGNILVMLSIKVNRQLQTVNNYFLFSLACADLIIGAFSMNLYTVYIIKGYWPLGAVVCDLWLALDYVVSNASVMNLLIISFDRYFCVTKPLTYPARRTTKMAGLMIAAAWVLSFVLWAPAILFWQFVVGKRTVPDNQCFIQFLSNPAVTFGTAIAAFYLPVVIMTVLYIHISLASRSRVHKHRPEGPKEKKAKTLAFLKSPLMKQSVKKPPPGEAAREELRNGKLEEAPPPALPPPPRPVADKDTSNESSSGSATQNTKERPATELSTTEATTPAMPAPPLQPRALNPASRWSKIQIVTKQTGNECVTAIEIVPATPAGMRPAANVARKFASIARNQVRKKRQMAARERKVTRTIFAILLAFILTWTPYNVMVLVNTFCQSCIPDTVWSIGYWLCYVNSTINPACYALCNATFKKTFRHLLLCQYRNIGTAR

[23] = target: 5-hydroxytryptamine receptor 3A (Homo sapiens) (UniProt P46098); assay: Inhibition of serotonin 5-HT3 receptor at 1 uM by ligand displacement assay
Chain of 5-hydroxytryptamine receptor 3A (Homo sapiens) (P46098 whole entry): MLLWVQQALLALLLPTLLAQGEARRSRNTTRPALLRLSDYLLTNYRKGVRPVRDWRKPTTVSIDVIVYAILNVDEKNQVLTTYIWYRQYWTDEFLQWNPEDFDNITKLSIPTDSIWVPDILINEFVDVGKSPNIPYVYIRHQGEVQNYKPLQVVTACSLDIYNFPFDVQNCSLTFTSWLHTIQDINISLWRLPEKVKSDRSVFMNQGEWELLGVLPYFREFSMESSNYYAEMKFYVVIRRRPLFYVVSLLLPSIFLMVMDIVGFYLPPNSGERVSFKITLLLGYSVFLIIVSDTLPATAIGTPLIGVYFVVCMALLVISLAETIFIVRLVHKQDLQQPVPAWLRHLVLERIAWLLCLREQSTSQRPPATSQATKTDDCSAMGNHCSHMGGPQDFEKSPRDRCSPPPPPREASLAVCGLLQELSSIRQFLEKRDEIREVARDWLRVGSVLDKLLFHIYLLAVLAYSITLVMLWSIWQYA

[24] = target: Adenosine receptor A3 (Homo sapiens) (UniProt P0DMS8); assay: Inhibition of adenosine A3 receptor at 1 uM by ligand displacement assay
[25] = target: 5-hydroxytryptamine receptor 2A (Homo sapiens) (UniProt P28223); assay: Inhibition of serotonin 5-HT2A receptor at 1 uM by ligand displacement assay
[26] = target: Histamine H1 receptor (Homo sapiens) (UniProt P35367); assay: Inhibition of histamine H1 receptor at 1 uM by ligand displacement assay
[27] = target: T2, 5-hydroxytryptamine receptor 2C (Homo sapiens) (UniProt P28335); assay: Inhibition of serotonin 5-HT2C receptor at 1 uM by ligand displacement assay
T2 sequence (whole entry): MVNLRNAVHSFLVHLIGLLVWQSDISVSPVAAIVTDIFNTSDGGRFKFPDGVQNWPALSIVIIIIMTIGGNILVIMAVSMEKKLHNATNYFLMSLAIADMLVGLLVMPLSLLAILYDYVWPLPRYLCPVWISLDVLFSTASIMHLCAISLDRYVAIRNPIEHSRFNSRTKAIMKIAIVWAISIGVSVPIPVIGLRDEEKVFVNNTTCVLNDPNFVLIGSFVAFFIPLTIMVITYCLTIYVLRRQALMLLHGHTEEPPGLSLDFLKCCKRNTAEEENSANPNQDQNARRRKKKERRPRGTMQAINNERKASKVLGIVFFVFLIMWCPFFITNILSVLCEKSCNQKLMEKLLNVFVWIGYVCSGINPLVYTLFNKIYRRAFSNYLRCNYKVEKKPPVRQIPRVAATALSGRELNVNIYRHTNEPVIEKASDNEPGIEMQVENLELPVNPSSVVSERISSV

[28] = target: 5-hydroxytryptamine receptor 1B (Homo sapiens) (UniProt P28222); assay: Inhibition of serotonin 5-HT1B receptor at 1 uM by ligand displacement assay
[29] = target: Adenosine receptor A2a (Homo sapiens) (UniProt P29274); assay: Inhibition of adenosine A2A receptor at 1 uM by ligand displacement assay
[30] = target: Muscarinic acetylcholine receptor M2 (Homo sapiens) (UniProt P08172); assay: Inhibition of muscarinic M2 receptor at 1 uM by ligand displacement assay
Chain of Muscarinic acetylcholine receptor M2 (Homo sapiens) (P08172 whole entry): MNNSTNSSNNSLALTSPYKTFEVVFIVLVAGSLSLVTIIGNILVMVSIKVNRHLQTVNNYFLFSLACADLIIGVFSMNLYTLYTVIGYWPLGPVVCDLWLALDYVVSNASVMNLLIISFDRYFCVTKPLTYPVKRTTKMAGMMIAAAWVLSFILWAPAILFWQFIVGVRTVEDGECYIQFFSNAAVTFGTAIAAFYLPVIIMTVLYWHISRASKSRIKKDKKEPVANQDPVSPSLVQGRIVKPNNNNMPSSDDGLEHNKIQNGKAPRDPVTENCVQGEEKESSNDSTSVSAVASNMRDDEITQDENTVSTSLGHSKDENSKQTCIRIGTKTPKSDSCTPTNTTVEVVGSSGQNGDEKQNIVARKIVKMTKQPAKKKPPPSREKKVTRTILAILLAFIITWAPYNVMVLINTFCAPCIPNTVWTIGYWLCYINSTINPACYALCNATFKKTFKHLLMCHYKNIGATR

[31] = target: 5-hydroxytryptamine receptor 7 (Homo sapiens) (UniProt P34969); assay: Inhibition of serotonin 5-HT7 receptor at 1 uM by ligand displacement assay
[32] = target: Voltage-gated inwardly rectifying potassium channel KCNH2 (Homo sapiens, UniProt Q12809); assay: Inhibition of human Erg at 1 uM by ligand displacement assay
[33] = target: Muscarinic acetylcholine receptor M1 (Homo sapiens) (UniProt P11229); assay: Inhibition of muscarinic M1 receptor at 1 uM by ligand displacement assay
[34] = target: D(1A) dopamine receptor (Homo sapiens) (UniProt P21728); assay: Inhibition of dopamine D1 receptor at 1 uM by ligand displacement assay
[35] = target: T1, 5-hydroxytryptamine receptor 6; assay: Partial agonist activity at human recombinant 5-HT6 receptor expressed in human HEK293 cells assessed as inhibition of serotonin-induced cAMP accumulation; assay type: functional, cell-based

Compound: CNc1nn2c(C)c(CN)c(C)nc2c1S(=O)(=O)c1cccc(Cl)c1
Ki ([1]; read-out: pKi (converted)): 0.55 nM

Compound: CNc1nn2c(C)c(CN(C)C)c(C)nc2c1S(=O)(=O)c1cccc(F)c1
Ki ([1]; read-out: pKi (converted)): 0.891 nM

Compound: CNc1nn2c(N)c(Cl)c(C)nc2c1S(=O)(=O)c1cccc(Cl)c1
Ki ([1]; read-out: pKi (converted)): 18.6 nM

Compound: CSc1nn2c(N3CCNCC3)c3c(nc2c1S(=O)(=O)c1ccccc1)CCC3
Ki ([1]; read-out: Ki): 0.85 nM

Compound: CNc1nn2c(N)cc(C)nc2c1S(=O)(=O)c1cccc(Cl)c1
Ki ([1]; read-out: pKi (converted)): 0.219 nM

Compound: CNc1nn2c(C)c(CN)c(C)nc2c1S(=O)(=O)c1ccccc1
Ki ([1]; read-out: pKi (converted)): 0.646 nM

Compound: CNc1nn2c(C)c(CN(C)C)c(C)nc2c1S(=O)(=O)c1ccccc1
Ki ([1]; read-out: pKi (converted)): 0.708 nM

Compound: CNc1nn2c(C)c(CCN(C)C)c(C)nc2c1S(=O)(=O)c1ccccc1
Ki ([1]; read-out: pKi (converted)): 2.09 nM

Compound: CNc1nn2c(C)c(NC(C)=O)c(C)nc2c1S(=O)(=O)c1ccccc1
Ki ([1]; read-out: pKi (converted)): 4.68 nM

Compound: CNc1nn2c(C)c(CN(C)C)c(C)nc2c1S(=O)(=O)c1cccc(Cl)c1
Ki ([1]; read-out: pKi (converted)): 0.417 nM

Compound: CNc1nn2c(C)c(N(C)C)c(C)nc2c1S(=O)(=O)c1ccccc1
Ki ([1]; read-out: pKi (converted)): 0.209 nM | inhibition [27]: inactive

Continued, in another order:

Ki ([1]; read-out: pKi (converted)): 69.2 nM
Compound: CNc1nn2c(NCCN(C)C)cc(C)nc2c1S(=O)(=O)c1ccccc1

Ki ([1]; read-out: pKi (converted)): 22.4 nM
Compound: CNc1nn2c(N(C)CCN(C)C)cc(C)nc2c1S(=O)(=O)c1ccccc1

inhibition [2]: inactive | inhibition [3]: inactive | inhibition [4]: inactive | inhibition [5]: inactive | inhibition [6]: inactive | inhibition [7]: inactive | inhibition [8]: inactive | inhibition [9]: inactive | inhibition [10]: inactive | inhibition [11]: inactive | inhibition [12]: inactive | inhibition [13]: inactive | inhibition [14]: inactive | inhibition [15]: inactive | inhibition [16]: inactive | inhibition [17]: inactive | inhibition [18]: inactive | inhibition [19]: inactive | inhibition [20]: 100% | Kb [21]: 0.501 nM | inhibition [22]: inactive | inhibition [23]: inactive | inhibition [24]: inactive | inhibition [25]: inactive | inhibition [26]: inactive | Ki ([1]; read-out: pKi (converted)): 0.302 nM | inhibition [27]: 50% | inhibition [28]: inactive | inhibition [29]: inactive | inhibition [30]: inactive | inhibition [31]: inactive | inhibition [33]: inactive | inhibition [34]: inactive
Compound: CNc1nn2c(N)cc(C)nc2c1S(=O)(=O)c1ccccc1
inhibition (INH) [32]: Not Active

Ki ([1]; read-out: pKi (converted)): 16.6 nM
Compound: CNc1nn2c(N3CCOCC3)cc(C)nc2c1S(=O)(=O)c1ccccc1

Ki ([1]; read-out: Ki): 0.14 nM
Compound: CNc1nn2c(N)c(Cl)c(C)nc2c1S(=O)(=O)c1ccccc1

Ki ([1]; read-out: pKi (converted)): 0.263 nM
Compound: CNc1nn2c(C)cc(C)nc2c1S(=O)(=O)c1ccccc1

Ki [35]: 33.9 nM
Compound: CNc1nn2c(CCN(C)C)cc(C)nc2c1S(=O)(=O)c1ccccc1

Ki ([1]; read-out: pKi (converted)): 0.575 nM
Compound: CNc1nn2c(NC)cc(C)nc2c1S(=O)(=O)c1ccccc1

Ki ([1]; read-out: pKi (converted)): 0.977 nM | inhibition [27]: inactive
Compound: CNc1nn2c(C)cc(CN)nc2c1S(=O)(=O)c1ccccc1

Ki ([1]; read-out: Ki): 112 nM
Compound: CNc1nn2c(NCCCN(C)C)cc(C)nc2c1S(=O)(=O)c1ccccc1

Ki ([1]; read-out: pKi (converted)): 1.82 nM
Compound: CNc1nn2c(CN(C)C)cc(C)nc2c1S(=O)(=O)c1ccccc1

Ki ([1]; read-out: pKi (converted)): 1.86 nM
Compound: CNc1nn2c(CN)cc(C)nc2c1S(=O)(=O)c1ccccc1

Ki ([1]; read-out: pKi (converted)): 0.347 nM
Compound: CNc1nn2c(N(C)C)cc(C)nc2c1S(=O)(=O)c1ccccc1

Kb [21]: 3.98 nM | Ki [35]: 3.09 nM
Compound: CNc1nn2c(CCN)cc(C)nc2c1S(=O)(=O)c1ccccc1

Kb [21]: 0.398 nM | Ki ([1]; read-out: pKi (converted)): 0.525 nM | inhibition [27]: inactive
Compound: CNc1nn2c(C)c(N)c(C)nc2c1S(=O)(=O)c1ccccc1
